Measurements from US4020076A, “Novel phosphoryloxy-thiazoles” (priority 1974, dated 1977).
Like-named read-outs stand apart in the source and are kept apart here.

Assays:
Format in all cases: in vivo
Aedes aegypti larvae = experiment: Activity against Aedes aegypti larvae; settings: for mortality at 0.25 µg/mL: 0.25 mg/l (10^-3 ppm); for mortality at 2.5 µg/mL: 2.5 mg/l (10^-2 ppm); for mortality at 25 µg/mL: 25 mg/l
Experimental: f. Activity against Aedes aegypti larvae
10 Aedes aegypti larvae in the IV stage in 49 ml of water were added to 200 ml of water and 1 ml of an acetone solution of the test product was added thereto.

[1] = test system: Agrostis Segetum caterpillars; experiment: Activity against Agrostis Segetum caterpillars
Experimental: i. Activity against Agrostis Segetum caterpillars
Larvae of Agrostis Segetum in the fifth stage were placed in small boxes whose bottom (26 cm on a side) is in the form of a square with a height of 20 cm. The boxes were filled with dirt to a height of 8 cm and 5 lettuce plants of about 15 cm high were planted and 10 caterpillars were placed in each box and after 3 hours, the boxes were each sprayed with 5 ml of an aqueous solution of the test product and the percent of efficacy is reported in Table IX.

Drosophila melanogaster = experiment: Vapor activity against Drosophila melanogaster; settings: inhaled or nasal, read-out: percentage of mortality
Experimental: a. Activity against Drosophila melanogaster
This test measures the vapor activity of the compounds and the less than 48 hours old insects were placed in a Petri dish with a 10 cm diameter connected by a tergal screen to a crystallizer of the same diameter in which the test compound in acetone solution is placed. The said solution is evaporated after the insects have been placed and 3 tests with 25 insects were run for each concentration. The results are expressed in Table I as a percentage of mortality after 1, 2, 4 and 6 hours.

Musca domestica = experiment: Topical application activity against Musca domestica; settings: read-out: percent of mortality
Experimental: d. Activity against Musca domestica
This topical application test consisted of placing a microliter of an acetone solution of the test product on the dorsal thorax of Musca domestica after having been put to sleep with ether. The insects were held at 20° C and 50% relative humidity and were fed milk and water.

Musca domestica larvae = experiment: Contact-ingestion test against Musca domestica larvae; settings: read-out: percent of mortality
Experimental: g. Activity against Musca domestica larvae
This contact-ingestion test consisted of placing 2 ml of an acetone solution of different concentrations of the test product on 1 g of bran placed in a watch glass and the solvent was evaporated. The treated bran was placed in a plastic dish and was admixed with 2 ml of milk. 20 3 to 4 day old larvae of Musca domestica were added to the bran and were held at 20° C and 30% relative humidity and 3 tests were conducted for each concentration.

[2] = test system: Ditylenchus Myceliophagus; experiment: Acaricide activity, Ditylenchus Myceliophagus; settings: 24 h, 0.1 g/l, read-out: Percent of mortality after 24 hours
Experimental: In an apparatus containing 10 ml of an aqueous solution of the test product, 0.5 ml of water containing about 2000 acariens of Ditylenchus Myceliophagus were added thereto and the percent of mortality was determined by a binocular magnifying glass after 24 hours.

[3] = test system: Leptinotarsa Decemlineata; experiment: Activity against Leptinotarsa Decemlineata larvae; settings: for mortality at 500 µg/mL: 50 g/hl; for mortality at 1000 µg/mL: 100 g/hl
Description: h. Activity againt Leptinotarsa Decemlineata
Eggplant leaves with about 40 cm^ 2 of surface area (10 × 4 cm) were cut out of untreated plants and were washed with water and dried before being immersed for 10 seconds in an acetone solution of the test product. After drying, the leaves were placed in a plastic ventilated dish and 10 larvae of Leptinotarsa Decemlineata in the fourth stage were placed thereon.

Blattella germanica = experiment: Topical application activity against Blattella germanica; settings: read-out: percent of mortality
Experimental: b. Activity against Blattella germanica
This test was a topical application in which adult male Blattella germanica received 2 microliters of an acetone solution of the test products between the second and third pair of paws. After this treatment, the test insects were held in a dim light at 20° C and were fed. The results expressed as percent of mortality in Table II were read 24 and 48 hours and 5 days after the treatment.

Meloidogynes spec = experiment: Nematocidal activity against Meloidogynes spec (tomato root galls); settings: 250 Kg/ha
Experimental: a. Activity against Meloidogynes spec
A volume of about 3 liters of dirt infested with Meloidogynes spec was placed in a plastic sack. Nematocidal treatments are considered effective to a depth of 30 cm, a volume of 3 liters of dirt corresponding to a surface area of 100 cm^ 2 or 10^-^6 ha (since 100 cm^ 2 × 30 cm = 3000 ml or 3 liters). Each volume of infested dirt received 100 ml of an aqueous suspension containing 0.250 g of the test product (corresponding to 250 Kg/ha) and the controls received only 100 ml of water. The plastic sacks containing the dirt were immediately sealed after the treatment and then agitated to obtain a good distribution of the product. Two weeks after the treatment, the sacks were opened and the dirt was used to plant 3 tomato plants of St. Pierre variety. The plants used were raised in the greenhouse with dirt sterilized with heat to obtain plants free of nematodes. Three plants were used for each test which was run 6 times for each treatment. Two months after planting the tomatoes were removed from the dirt and the efficacy was determined by counting the number of galls observed on the roots. A correlation between the population of Meloidogynes in the pot and the number of galls exists.

[4] = 24 h, read-out: % of mortality after 24 H
[5] = 48 h, read-out: % of mortality after 48 H
[6] = 1 h, read-out: % of mortality after 1 H

CCOc1nc(OP(=S)(OC)OC)c(C#N)s1 [Compound C, 2-ethoxy-4-dimethoxythiophosphoryloxy-5-cyano-thiazole]
73%: mortality at 5000 ppm (Musca domestica larvae; 192 h, 8 Days)
63%: mortality at 500 ppm (Musca domestica larvae; 192 h, 8 Days)
50%: Emax ([1]; 72 h, 50 g/hl, read-out: % efficacy after 3 days) | Emax ([1]; 120 h, read-out: % efficacy after 5 days, 100 g/hl)
0%: mortality at 0.25 µg/mL (Aedes aegypti larvae; [4]) | mortality at 2.5 µg/mL (Aedes aegypti larvae; [4]) | mortality at 0.25 µg/mL (Aedes aegypti larvae; [5]) | mortality at 2.5 µg/mL (Aedes aegypti larvae; [5]) | mortality at 500 µg/mL [3, 6] | mortality at 1000 µg/mL [3, 6]
53%: mortality at 5000 ppm (Musca domestica larvae; 48 H)
66.8%: mortality at 100 µg/mL [2]
100%: mortality at 25 µg/mL (Aedes aegypti larvae; [4]) | mortality at 25 µg/mL (Aedes aegypti larvae; [5]) | Emax ([1]; 120 h, 50 g/hl, read-out: % efficacy after 5 days) | Emax ([1]; 120 h, 150 g/hl, read-out: % efficacy after 5 days) | Emax ([1]; 168 h, 50 g/hl, read-out: % efficacy after 7 days) | Emax ([1]; 168 h, 150 g/hl, read-out: % efficacy after 7 days) | Emax ([1]; 168 h, read-out: % efficacy after 7 days, 100 g/hl) | mortality at 50 ppm (Drosophila melanogaster; 1 H) | mortality at 500 ppm (Drosophila melanogaster; 1 H) | mortality at 5 ppm (Drosophila melanogaster; 4 H) | mortality at 50 ppm (Drosophila melanogaster; 4 H) | mortality at 500 ppm (Drosophila melanogaster; 4 H) | mortality at 5 ppm (Drosophila melanogaster; 6 H) | mortality at 50 ppm (Drosophila melanogaster; 6 H) | mortality at 500 ppm (Drosophila melanogaster; 6 H) | mortality at 500 ppm (Musca domestica; 1 H, 500 ppm) | mortality at 2500 ppm (Musca domestica; 1 H, 2500 ppm) | mortality at 5000 ppm (Musca domestica; 1 H, 5000 ppm) | mortality at 2500 ppm (Musca domestica; 24 h) | mortality at 5000 ppm (Musca domestica; 24 h) | mortality at 1000 µg/mL [3, 4] | mortality at 1000 µg/mL [3, 5] | mortality at 625 ppm (Blattella germanica; 24 H) | mortality at 1250 ppm (Blattella germanica; 24 H) | mortality at 625 ppm (Blattella germanica; 48 H) | mortality at 1250 ppm (Blattella germanica; 48 H) | mortality at 625 ppm (Blattella germanica; 120 h, 5 Days) | mortality at 1250 ppm (Blattella germanica; 120 h, 5 Days)
67.4%: Relative efficacity in % as compound to controls (Meloidogynes spec)
98%: mortality at 5 ppm (Drosophila melanogaster; 1 H)
43%: mortality at 500 ppm (Musca domestica larvae; 48 H)
25%: Emax ([1]; 72 h, read-out: % efficacy after 3 days, 100 g/hl)
80%: Emax ([1]; 72 h, 150 g/hl, read-out: % efficacy after 3 days) | mortality at 312.5 ppm (Blattella germanica; 24 H) | mortality at 312.5 ppm (Blattella germanica; 48 H) | mortality at 312.5 ppm (Blattella germanica; 120 h, 5 Days)
32.77: Number of galls per foot (Meloidogynes spec; control 44.4)
295: Total number of galls (Meloidogynes spec; control 222)
97%: mortality at 500 ppm (Musca domestica; 24 h)
40%: mortality at 500 µg/mL [3, 4] | mortality at 500 µg/mL [3, 5]
